# Legend:
# Settings in all cases: 48 h
# [1] = system: CU-ACC1; assay: area under concentration-response curve (viability) (AUC (a.u.)); higher = less active
# How it was run: (§1)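 Three adrenocortical carcinoma cell lines in 1,536-well plates received 23 nL of each library compound at 11 concentrations and were read with CellTiter-Glo after 48 h, with 15 minutes at room temperature before measuring luminescence. Vehicle and empty-well controls served for per-plate normalisation. AC50 and area under the curve were extracted from fitted concentration-response curves, discarding all curve classes other than inhibitory or non-responding.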
# [2] = system: CU-ACC2; assay: as above
# How it was run: as §1
# [3] = system: NCI-H295R; assay: as above
# How it was run: as §1
# [4] = system: CU-ACC1; assay: AC50 viability; higher = less potent
# How it was run: as §1
# [5] = system: NCI-H295R; assay: AC50 viability; higher = less potent
# How it was run: as §1
SMILES,area under concentration-response curve [1],area under concentration-response curve [2],area under concentration-response curve [3],AC50 viability [4],AC50 viability [5]
CCC[S+](=O)([O-])c1nc(NC2CC2)cc(-c2ccc3c(ccn3C3CC(C)(C)NC(C)(C)C3)c2)n1,490,580,530,3.93 µM,3.12 µM
CN1CCN(c2ccc3nc(-c4cc(C(C)(C)C)c(OCCCC(=O)NCCCN=[N+]=[N-])c(C(C)(C)C)c4)[nH]c3c2)CC1,462,566,508,7.42 µM,7.42 µM
CC(C)(O)C[S+](=O)([O-])Nc1ccc2c(c1)CCN(C(=O)COc1cccnc1)C2,334,390,483,0.295 µM,1.05 µM
Cc1ccc([S+](=O)([O-])Cc2nc(-c3ccc(C(=O)NCc4cccnc4)cc3)oc2C)cc1,290,402,379,0.0742 µM,0.263 µM
C=C(C)[C@H]1Cc2c(ccc3c2O[C@@H]2COc4cc(OC)c(OC)cc4[C@@H]2C3=O)O1,344,479,445,0.166 µM,1.05 µM
COc1ccc(C[C@@H](C)[C@@H](C)Cc2ccc(OC)c(OC)c2)cc1OC,452,536,480,4.68 µM,20.9 µM
O=C(NCCCNC(=O)c1cccnc1O)c1cc(-c2ccccc2)on1,481,574,443,20.9 µM,18.6 µM
CC(C)C[C@H](NC(=O)[C@H](Cc1ccccc1)NC(=O)c1cnccn1)B(O)O,290,327,345,0.0372 µM,0.0263 µM
Cc1cnc(NC(=O)Nc2cc(Br)c(C)cc2OC[C@@H]2CNCCO2)cn1,486,613,524,6.61 µM,4.68 µM
Cc1cc(C)c([S+](=O)([O-])N(CCc2cccc(Br)c2)Cc2ccc(-c3cccc([S+](C)(=O)[O-])c3)cc2)c(C)c1,412,417,442,0.833 µM,7.42 µM
O=C(Nc1cccnc1)N1CCC(Cc2cccc(Oc3ccc(C(F)(F)F)cn3)c2)CC1,406,559,500,5.25 µM,18.6 µM
C/C(=N\Nc1nnc2c(n1)[nH]c1c(C)cccc12)c1ccccn1,403,533,415,2.35 µM,9.34 µM
COc1cc2ncnc(Nc3cccc(Cl)c3)c2cc1OC,558,610,562,13.2 µM,20.9 µM
C[C@H]1[C@H](O)O[C@@H]2O[C@@]3(C)CC[C@H]4[C@H](C)CC[C@@H]1[C@@]24OO3,494,604,549,6.61 µM,20.9 µM
CCN(CCO)CCCOc1ccc2c(Nc3cc(CC(=O)Nc4cccc(F)c4)[nH]n3)ncnc2c1,390,569,483,23.5 µM,16.6 µM
C=C1C(=O)O[C@H]2C[C@H](C)C(/C=C/C(C)=O)=CC[C@H]12,450,529,519,9.34 µM,18.6 µM
Cc1ccc(C(C)(O)c2nc3ccccc3s2)c(C)c1 (stereo not given),421,511,464,8.33 µM,16.6 µM
Cc1nnn(C)c1-c1cnc2c3ccc(C(C)(C)O)cc3n([C@H](c3ccccc3)C3CCOCC3)c2c1,416,482,425,0.468 µM,0.0166 µM
COc1cc(OC)cc(N2CCN(C(=O)Nc3nc4cc(F)ccc4nc3OC)CC2)c1,503,556,454,23.5 µM,16.6 µM
C[C@@H](C(=O)Nc1ccc(Cl)cc1)[C@H]1CC[C@@H](c2ccnc3ccc(F)cc32)CC1,488,626,564,29.5 µM,16.6 µM
O=C1Nc2ccc(Cl)cc2[C@@](C#CC2CC2)(C(F)(F)F)O1,490,589,468,20.9 µM,20.9 µM
C[C@H]1O[C@H](C[C@H](O)[C@@H]1O)O[C@H]2[C@@H](O)C[C@@H](O[C@@H]2C)O[C@H]3[C@@H](O)C[C@@H](O[C@@H]3C)O[C@H]4CC[C@@]5(C)[C@H](CC[C@@H]6[C@@H]5C[C@@H](O)[C@]7(C)[C@H](CC[C@]67O)C/8=C/C(=O)OC8)C4,255,349,269,0.0372 µM,0.118 µM
NC(=O)c1ccccc1Nc1ccnc(Nc2cccc(O)c2)n1,465,553,462,20.9 µM,2.63 µM
Cc1cccc(CN2CCN(C(c3ccccc3)c3ccc(Cl)cc3)CC2)c1 (stereo not given),422,534,495,13.2 µM,16.6 µM
C[C@@H]1CN(Cc2ccc(F)cc2)CCN1C(=O)COc1ccc(Cl)cc1NC(N)=O,412,522,465,1.86 µM,0.166 µM
CCN1C(=O)C\N=C/2N\C=C(/N=C12)C3=C(C)N=C(C=C3)C4=NN=C[NH]4,404,489,458,10.5 µM,13.2 µM
CCc1cncnc1N1CCN(Cc2nc3cc(C(F)(F)F)ccc3[nH]2)CC1,438,590,502,20.9 µM,20.9 µM
C[C@@H](Oc1ccc2[nH]nc(/C=C/c3cnn(CCO)c3)c2c1)c1c(Cl)cncc1Cl,481,519,473,16.6 µM,14.8 µM

# From the supplement of paper PMC10949913
